In US8153795B2, “Substituted 1-oxa-3,8-diazaspiro[4.5]-decan-2-one-compounds and the use thereof for producing drugs” (Gruenenthal GmbH, priority 2005, dated 2012):

These compounds were tested against T1, 5-HT transporter (Rattus norvegicus, UniProt P31652) (assay: 5-HT uptake inhibition in rat brain synaptosomes (medulla and pons), [3H]-5-HT).
T1 construct: from tissue; host or cells: rat brain synaptosomes (P2 fraction) from medulla and pons
Type: biochemical
From the text: a) Method for Determining Noradrenalin and 5-HT Uptake Inhibition:
Synaptosomes from rat brain regions are freshly isolated for in vitro studies, as described in the publication “The isolation of nerve endings from brain” by E. G. Gray and V. P. Whittaker, J. Anatomy 96, pages 79-88, 1962. The corresponding literature description is hereby introduced as a reference and is deemed to be part of the disclosure.
The tissue (hypothalamus for the determination of noradrenalin uptake inhibition and medulla and pons for the determination of 5-HT uptake inhibition) is homogenised in ice-cooled 0.32 M sucrose (100 mg of tissue/1 mL) in a glass homogeniser with Teflon pestle using five complete up and down strokes at 840 revolutions/minute.
The homogenate is centrifuged at 4° C. for 10 minutes at 1000 g. After subsequent centrifugation at 17000 g for 55 minutes, the synaptosomes (P2 fraction) are obtained, which are resuspended in 0.32 M […] (0.5 mL/100 mg of original weight).
The particular uptake is measured in a 96-well microtitre plate. The volume is 250 μl and the incubation proceeds at room temperature (approx. 20-25° C.) under an O2 atmosphere.
The incubation time is 7.5 minutes for [^3H]-NA and 5 minutes for [^3H]-5-HT. The 96 samples are then filtered through a Unifilter GF/B® microtitre plate (Packard) and washed with 200 mL of incubated buffer using a “Brabdel MPXRI-96T Cell-Harvester”. The Unifilter GF/B plate is dried for 1 hour at 55° C. The plate is then sealed with a Back Seal® (Packard) and 35 μl of scintillation fluid are added per well (Ultima Gold®, Packard). After sealing with a top Seal® (Packard) and establishing an equilibrium (around 5 hours), radioactivity is determined in a “Trilux 1450 Microbeta” (Wallac).
The quantity of protein used in the above determination corresponds to the values known from the literature, as for example described in “Protein measurement with the folin phenol reagent”, Lowry et al., J. Biol. Chem., 193, 265-275, 1951.
A detailed description of the method may additionally be found in the literature, for example in M. Ch. Frink, H.-H. Hennies, W. Engelberger, M. Haurand and B. Wilffert (1996) Arzneim.-Forsch./Drug Res. 46 (III), 11, 1029-1036.

T1 sequence (P31652 whole entry): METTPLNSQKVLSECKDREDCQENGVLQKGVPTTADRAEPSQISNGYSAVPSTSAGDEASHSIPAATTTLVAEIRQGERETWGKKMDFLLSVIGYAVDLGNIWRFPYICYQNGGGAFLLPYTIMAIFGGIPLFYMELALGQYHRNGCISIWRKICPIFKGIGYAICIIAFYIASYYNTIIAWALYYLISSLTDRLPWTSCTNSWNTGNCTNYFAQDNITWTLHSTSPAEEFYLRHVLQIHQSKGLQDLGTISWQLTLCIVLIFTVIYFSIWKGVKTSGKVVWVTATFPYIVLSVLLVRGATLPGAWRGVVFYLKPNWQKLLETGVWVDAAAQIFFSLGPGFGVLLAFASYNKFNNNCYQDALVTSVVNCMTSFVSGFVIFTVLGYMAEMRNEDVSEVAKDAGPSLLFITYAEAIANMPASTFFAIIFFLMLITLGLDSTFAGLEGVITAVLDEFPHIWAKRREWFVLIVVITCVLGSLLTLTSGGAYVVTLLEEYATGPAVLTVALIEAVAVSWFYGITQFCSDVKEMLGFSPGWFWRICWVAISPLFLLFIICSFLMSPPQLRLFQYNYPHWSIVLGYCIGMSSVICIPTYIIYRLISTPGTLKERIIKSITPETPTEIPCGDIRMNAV

Compound | inhibition at 10 µM
Cc1cc(C)cc(CN2CC3(CCN(S(=O)(=O)Cc4ccccc4Cl)CC3)OC2=O)c1 [Example 116, 8-(2-chlorobenzylsulfonyl)-3-(3,5-dimethylbenzyl)-1-oxa-3,8-diazaspiro[4.5]decan-2-one] | 76%
Cc1cc(C)cc(CN2CC3(CCN(C(=O)c4ccc5nonc5c4)CC3)OC2=O)c1 [Example 117, 8-(benzo[1,2,5]oxadiazole-5-carbonyl)-3-(3,5-dimethylbenzyl)-1-oxa-3,8-diazaspiro[4.5]decan-2-one] | 73%
O=C1OC2(CCN(C(=O)c3ccc(-c4ccccc4)cc3)CC2)CN1Cc1ccc(I)cc1 [Example 118, 8-(biphenyl-4-carbonyl)-3-(4-iodobenzyl)-1-oxa-3,8-diazaspiro[4.5]decan-2-one] | 66%
Cc1cc(C)cc(CN2CC3(CCN(C(=O)c4ccccn4)CC3)OC2=O)c1 [Example 119, 3-(3,5-dimethylbenzyl)-8-(pyridine-2-carbonyl)-1-oxa-3,8-diazaspiro[4.5]decan-2-one] | 67%
O=C1OC2(CCN(C(=O)c3ccc(Cl)nc3)CC2)CN1Cc1ccc2ccccc2c1 [Example 120, 8-(6-chloropyridine-3-carbonyl)-3-naphthalen-2-ylmethyl-1-oxa-3,8-diazaspiro[4.5]decan-2-one] | 66%
CCSc1ncccc1C(=O)N1CCC2(CC1)CN(Cc1cccc(Br)c1)C(=O)O2 [Example 121, 3-(3-bromobenzyl)-8-(2-ethylsulfanylpyridine-3-carbonyl)-1-oxa-3,8-diazaspiro[4.5]decan-2-one] | 77%
Cc1cc(C)cc(CN2CC3(CCN(C(=O)c4cc(C)on4)CC3)OC2=O)c1 [Example 122, 3-(3,5-dimethylbenzyl)-8-(5-methylisoxazole-3-carbonyl)-1-oxa-3,8-diazaspiro[4.5]decan-2-one] | 68%
CCCCC(=O)N1CCC2(CC1)CN(Cc1cc([N+](=O)[O-])ccc1OC)C(=O)O2 [Example 123, 3-(2-methoxy-5-nitrobenzyl)-8-pentanoyl-1-oxa-3,8-diazaspiro[4.5]decan-2-one] | 71%
Cc1cc(C)cc(CN2CC3(CCN(C(=O)c4ccc(Br)cc4)CC3)OC2=O)c1 [Example 124, 8-(4-bromobenzoyl)-3-(3,5-dimethylbenzyl)-1-oxa-3,8-diazaspiro[4.5]decan-2-one] | 72%
COc1ccc([N+](=O)[O-])cc1CN1CC2(CCN(C(=O)c3cc(C(C)(C)C)oc3C)CC2)OC1=O [Example 125, 8-(5-tert-butyl-2-methylfuran-3-carbonyl)-3-(2-methoxy-5-nitrobenzyl)-1-oxa-3,8-diazaspiro[4.5]decan-2-one] | 63%
Cc1cc(C)cc(CN2CC3(CCN(C(=O)c4cccc(Cl)c4)CC3)OC2=O)c1 [Example 126, 8-(3-chlorobenzoyl)-3-(3,5-dimethylbenzyl)-1-oxa-3,8-diazaspiro[4.5]decan-2-one] | 64%
CCSc1ncccc1C(=O)N1CCC2(CC1)CN(Cc1ccccc1C(F)(F)F)C(=O)O2 [Example 127, 8-(2-ethylsulfanylpyridine-3-carbonyl)-3-(2-trifluoromethylbenzyl)-1-oxa-3,8-diazaspiro[4.5]decan-2-one] | 63%
Cc1cc(C)cc(CN2CC3(CCN(C(=O)c4ccno4)CC3)OC2=O)c1 [Example 128, 3-(3,5-dimethylbenzyl)-8-(isoxazole-5-carbonyl)-1-oxa-3,8-diazaspiro[4.5]decan-2-one] | 62%
O=C1OC2(CCN(C(=O)c3ccccn3)CC2)CN1Cc1cccc(Br)c1 [Example 129, 3-(3-bromobenzyl)-8-(pyridine-2-carbonyl)-1-oxa-3,8-diazaspiro[4.5]decan-2-one] | 77%
Cc1cc(C)cc(CN2CC3(CCN(C(=O)c4cccs4)CC3)OC2=O)c1 [Example 130, 3-(3,5-dimethylbenzyl)-8-(thiophene-2-carbonyl)-1-oxa-3,8-diazaspiro[4.5]decan-2-one] | 70%
Cc1cc(C)cc(CN2CC3(CCN(C(=O)c4ccc(F)c(Cl)c4)CC3)OC2=O)c1 [Example 131, 8-(3-chloro-4-fluorobenzoyl)-3-(3,5-dimethylbenzyl)-1-oxa-3,8-diazaspiro[4.5]decan-2-one] | 63%

Compound | inhibition at 10 µM
Cc1cc(C)cc(CN2CC3(CCN(C(=O)c4c(F)ccc(C)c4F)CC3)OC2=O)c1 [Example 132, 8-(2,6-difluoro-3-methylbenzoyl)-3-(3,5-dimethylbenzyl)-1-oxa-3,8-diazaspiro[4.5]decan-2-one] | 65%
COC(=O)CCC(=O)N1CCC2(CC1)CN(Cc1cccc(Br)c1)C(=O)O2 [Example 133, 4-[3-(3-bromobenzyl)-2-oxo-1-oxa-3,8-diazaspiro[4.5]dec-8-yl]-4-oxobutanoic acid methyl ester] | 64%
CCC(CC)C(=O)N1CCC2(CC1)CN(Cc1cccc(C#N)c1)C(=O)O2 [Example 134, 3-[8-(2-ethylbutyryl)-2-oxo-1-oxa-3,8-diazaspiro[4.5]dec-3-ylmethyl]benzonitrile] | 64%
N#Cc1cccc(CN2CC3(CCN(S(=O)(=O)Cc4cccc(Br)c4)CC3)OC2=O)c1 [Example 135, 3-[8-(3-bromobenzylsulfonyl)-2-oxo-1-oxa-3,8-diazaspiro[4.5]dec-3-ylmethyl]benzonitrile] | 69%
Cc1ccc(C(=O)N2CCC3(CC2)CN(Cc2ccc(F)c(F)c2)C(=O)O3)cc1 [Example 136, 3-(3,4-difluorobenzyl)-8-(4-methylbenzoyl)-1-oxa-3,8-diazaspiro[4.5]decan-2-one] | 67%
COc1ccc([N+](=O)[O-])cc1CN1CC2(CCN(C(=O)c3cccc(N(C)C)c3)CC2)OC1=O [Example 138, 8-(3-dimethylaminobenzoyl)-3-(2-methoxy-5-nitrobenzyl)-1-oxa-3,8-diazaspiro[4.5]decan-2-one] | 65%
O=C1OC2(CCN(C(=O)c3c(Cl)cccc3Cl)CC2)CN1Cc1ccccc1F [Example 139, 8-(2,6-dichlorobenzoyl)-3-(2-fluorobenzyl)-1-oxa-3,8-diazaspiro[4.5]decan-2-one] | 70%
COc1ccc([N+](=O)[O-])cc1CN1CC2(CCN(C(=O)c3cccnc3Oc3ccccc3)CC2)OC1=O [Example 140, 3-(2-methoxy-5-nitrobenzyl)-8-(2-phenoxypyridine-3-carbonyl)-1-oxa-3,8-diazaspiro[4.5]decan-2-one] | 64%
COc1cccc(CC(=O)N2CCC3(CC2)CN(Cc2ccc4ccccc4c2)C(=O)O3)c1 [Example 141, 8-[2-(3-methoxyphenyl)acetyl]-3-naphthalen-2-ylmethyl-1-oxa-3,8-diazaspiro[4.5]decan-2-one] | 78%
N#Cc1ccc(CN2CC3(CCN(S(=O)(=O)c4ccc5c(c4)CN(C(=O)C(F)(F)F)CC5)CC3)OC2=O)cc1 [Example 142, 4-{2-oxo-8-[2-(2,2,2-trifluoroacetyl)-1,2,3,4-tetrahydroisoquinoline-7-sulfonyl]-1-oxa-3,8-diazaspiro[4.5]dec-3-ylmethyl}benzonitrile] | 67%
O=C1OC2(CCN(C(=O)c3cc(C(F)(F)F)cc(C(F)(F)F)c3)CC2)CN1Cc1ccc(C(F)(F)F)cc1 [Example 143, 8-(3,5-bis-trifluoromethylbenzoyl)-3-(4-trifluoromethylbenzyl)-1-oxa-3,8-diazaspiro[4.5]decan-2-one] | 66%
O=C1OC2(CCN(C(=O)c3cccnc3Oc3ccccc3)CC2)CN1Cc1cccc(Br)c1 [Example 144, 3-(3-bromobenzyl)-8-(2-phenoxypyridine-3-carbonyl)-1-oxa-3,8-diazaspiro[4.5]decan-2-one] | 81%
COc1cccc(CC(=O)N2CCC3(CC2)CN(Cc2cc([N+](=O)[O-])ccc2OC)C(=O)O3)c1 [Example 145, 3-(2-methoxy-5-nitrobenzyl)-8-[2-(3-methoxyphenyl)acetyl]-1-oxa-3,8-diazaspiro[4.5]decan-2-one] | 77%
O=C1OC2(CCN(C(=O)c3cccnc3Oc3ccccc3)CC2)CN1Cc1ccc(F)c(F)c1 [Example 146, 3-(3,4-difluorobenzyl)-8-(2-phenoxypyridine-3-carbonyl)-1-oxa-3,8-diazaspiro[4.5]decan-2-one] | 63%
Cc1cc(C(=O)N2CCC3(CC2)CN(Cc2cccc(C#N)c2)C(=O)O3)ccc1Br [Example 147, 3-[8-(4-bromo-3-methylbenzoyl)-2-oxo-1-oxa-3,8-diazaspiro[4.5]dec-3-ylmethyl]benzonitrile] | 73%
